Results reported in patent publication US8440794B2, “Peptide sequences, their branched form and use thereof for antimicrobial applications” (Universita' Degli Studi di Siena, priority 2008, dated 2013).
Values after ≈ are worked out from the molar mass of the structure shown. Where a SMILES comes first, the peptide text is derived from it. Bridges are numbered along the chain shown (N, C = ends). Roman numbers before positions name the chains, in order. [ ]: non-standard residue; d: D form. βAla = NCCC(=O)O

Legend:
[1] = tested on: P. aeruginosa VR-143/97; experiment: In vivo antibacterial activity, mice infected ip with lethal amount of MDR P. aeruginosa VR-143/97; design: species or system Balb-c mice; conditions: MDR P. aeruginosa VR-143/97 1.5×10^7 CFU ip; single dose 25 mg/Kg
Procedure: FIG. 4. In vivo antibacterial activity of tetra-branched M33 peptide. A, Balb-c mice (20 g) were intra-peritoneally injected with a lethal amount of E. coli TG1 cells (1.5×10^9 CFU). Continuous line (Ctr) indicates mice only injected ip with bacteria and no M33. Broken line indicates mice injected ip with bacteria and a single injection of M33 peptide 10 mg/Kg 30 minutes later. B, Balb-c mice (20 g) were intra-peritoneally injected with a lethal amount of P. aeruginosa cells (ATCC 27853 1×10^7 CFU). Continuous line (Ctr) indicates mice which only received bacteria; other groups received bacteria and a single dose of M33 30 minutes later (see figure for doses of M33). C, Balb-c mice (20 g) were intra-peritoneally injected with a lethal amount of P. aeruginosa cells (multi drug resistant VR 147 clinical isolate, 1.5×10^7 CFU). Continuous line (Ctr) indicates mice which only received bacteria; broken line indicates mice which received bacteria and a single dose of M33 25 mg/Kg. D, Balb-c mice (20 g) were intra-peritoneally injected with a lethal amount of P. aeruginosa cells (ATCC 27853 1×10^7 CFU). […]
Tetra-branched M33 peptide was analysed for its antibacterial activity in mice infected with lethal amounts of bacteria. […]

[2] = tested on: P. aeruginosa SC-MDr03-06; type: cell-based, Pseudomonas aeruginosa; conditions: SC-MDr03-06, 24 h
Procedure: (§1) M33, […], M35 and M36 MICs were determined against strains of several bacterial species, including Gram-negative pathogens and also Staphylococcus aureus (Table 1). MICs in the micromolar range were observed against several Gram-negatives including Pseudomonas aeruginosa, Acinetobacter baumannii and most Enterobacteriaceae, with the exception of Proteus mirabilis, Serratia marcescens and Burkholderia cepacia. Activity of peptides was retained against MDR strains with various resistance mechanisms (such as extended-spectrum beta-lactamases and carbapenemases), including MDR P. aeruginosa strains from CF patients. Antimicrobial profile of M33, […] and potency were overall similar to those of polymyxin B, although M33, M34, M35 and M36 also appeared to have some activity against S. aureus (Table 1).

[3] = tested on: P. aeruginosa SC-GMm03-05; type: cell-based, Pseudomonas aeruginosa; conditions: SC-GMm03-05, 24 h
Procedure: as §1

[4] = tested on: P. aeruginosa SC-VMr04-05; type: cell-based, Pseudomonas aeruginosa; conditions: SC-VMr04-05, 24 h
Procedure: as §1

[5] = tested on: P. aeruginosa SC-DMr05-04; type: cell-based, Pseudomonas aeruginosa; conditions: SC-DMr05-04, 24 h
Procedure: as §1

[6] = tested on: P. aeruginosa EF-OBG6-1; type: cell-based, Pseudomonas aeruginosa; conditions: EF-OBG6-1, 24 h
Procedure: as §1

[7] = tested on: P. aeruginosa SC-CNm03-07; type: cell-based, Pseudomonas aeruginosa; conditions: SC-CNm03-07, 24 h
Procedure: as §1

[8] = tested on: P. aeruginosa VR-143/97; type: cell-based, Pseudomonas aeruginosa; conditions: VR-143/97, 24 h
Procedure: as §1

[9] = tested on: LPS from P. aeruginosa serotype 10 ATCC27316; TNF-α secretion by Raw 264.7 macrophages; experiment: Inhibition of LPS-induced TNF-α secretion by Raw 264.7 macrophages, LPS from P. aeruginosa; type: cell-based
Procedure: FIG. 3. Inhibition of TNF-α release by neutralization of LPS. A, Raw 264.7 cells were incubated with LPS from P. aeruginosa 20 ng/ml and M33. Triangles indicate incubation with LPS and different concentrations of M33. Squares indicate incubation with M33 only. B, Raw 264.7 cells were incubated with LPS from K. pneumoniae 5 ng/ml and M33. Triangles indicate incubation of macrophages with LPS and different concentrations of M33. Squares indicate incubation of macrophages with M33 only. SD derived by means of three different experiments. 100% indicates the maximum amount of TNF-α produced by macrophages when incubated with LPS without M33. The other percentages indicate the amount of TNF-α produced by macrophages when incubated with LPS and M33, with respect to 100%. Basal levels of TNF-α were negligible. MIC of M33 is indicated by the arrow.
(§2) Then it was examined for inhibiting LPS-induced TNF-α, secretion by Raw 264.7 macrophages.

[10] = tested on: P. aeruginosa and K. pneumoniae; type: cell-based; conditions: 24 h
Procedure: as §1, §2

[11] = tested on: E. coli TG1; experiment: Antibacterial activity against E. coli TG1 cells (CFU count after 75 min incubation, FIG. 1A); type: cell-based; conditions: 75 minutes at 37° C., CFU counted
From the text: FIG. 1. A, Antibacterial activity against E. coli TG1 cells. Comparison of the following tetra-branched peptides: M6 batch 1 synthesis (triangles), M6 batch 2 synthesis (squares), M6 batch 3 synthesis (white circles), which contain a mixture of Gln and pyroGlu (in unknown percentages) as first amino-acid, […] (asterisks), where the first amino-acid is 100% pyroGlu, and M33 (black circles), in which the first Gln was deleted. […] SD derived by means of three different experiments. Many different syntheses of M33 (and also of M34, M35 and M36, here not shown) gave perfectly overlapping results without any wavering outcome. B, Mass spectrometry analysis of tetra-branched peptide M6 crude mixture. Calculated molecular mass of M6 was 5195 Da. Two main peaks are present, one at 5197 Da corresponding to unmodified M6 and one at 5179 Da that corresponds to the secondary product with one pyroGlu in first position in the place of one of the four Gln. C, Mass spectrometry analysis of tetrabranched peptide M33 after 24 hours of incubation in serum. The peptide appears as a single peak at the expected molecular mass (4683 Da).
A single colony of E. coli TG1 strain was cultured in 2×TY medium to 0.2 OD^600. […] The following day colonies (CFU/ml) grown on plates were counted.

Q: What does the source list for `CC[C@H](C)[C@H](NC(=O)[C@H](CCCCN)NC(=O)[C@@H](N)CCCCN)C(=O)N[C@@H](CCCNC(=N)N)C(=O)N[C@H](C(=O)N[C@@H](CCCNC(=N)N)C(=O)N[C@@H](CC(C)C)C(=O)N[C@@H](CO)C(=O)N[C@@H](C)C(=O)NCCCC[C@H](NC(=O)[C@H](C)NC(=O)[C@H](CO)NC(=O)[C@H](CC(C)C)NC(=O)[C@H](CCCNC(=N)N)NC(=O)[C@@H](NC(=O)[C@H](CCCNC(=N)N)NC(=O)[C@@H](NC(=O)[C@H](CCCCN)NC(=O)[C@@H](N)CCCCN)[C@@H](C)CC)C(C)C)C(=O)NCCCC[C@H](NC(=O)[C@H](CCCCNC(=O)[C@H](C)NC(=O)[C@H](CO)NC(=O)[C@H](CC(C)C)NC(=O)[C@H](CCCNC(=N)N)NC(=O)[C@@H](NC(=O)[C@H](CCCNC(=N)N)NC(=O)[C@@H](NC(=O)[C@H](CCCCN)NC(=O)[C@@H](N)CCCCN)[C@@H](C)CC)C(C)C)NC(=O)[C@H](C)NC(=O)[C@H](CO)NC(=O)[C@H](CC(C)C)NC(=O)[C@H](CCCNC(=N)N)NC(=O)[C@@H](NC(=O)[C@H](CCCNC(=N)N)NC(=O)[C@@H](NC(=O)[C@H](CCCCN)NC(=O)[C@@H](N)CCCCN)[C@@H](C)CC)C(C)C)C(=O)NCCC(=O)O)C(C)C` [M33, KKIRVRLSA] (I: H-KKIRVRLSAKK[βAla]-OH / II: H-KKIRVRLSAK / III: H-KKIRVRLSA / IV: H-KKIRVRLSA; amide I:10-IV:C, I:11-II:C, II:10-III:C; N-terminus assumed)?
A: Animals protected [1]: 100%; MIC [2]: 3 µM (≈ 14 µg/mL); MIC [3]: 1.5 µM (≈ 7.02 µg/mL); MIC [4]: 3 µM (≈ 14 µg/mL); MIC [5]: 1.5 µM (≈ 7.02 µg/mL); MIC [6]: 0.7 µM (≈ 3.28 µg/mL); MIC [7]: 0.3 µM (≈ 1.4 µg/mL); MIC [8]: 1.5 µM (≈ 7.02 µg/mL); EC50 ([9]; Raw 264.7 macrophages, LPS from P. aeruginosa serotype 10 ATCC27316, 20 ng/ml, read-out: EC50, block of TNF-α secretion): 40 nM; Decrease of TNF-α production ([9]; at a concentration corresponding to MIC (1.5-3 μM), LPS from P. aeruginosa): more than 90%; MIC [10]: 1.5 to 3 µM; Antibacterial activity against E. coli TG1 cells (comparison of tetra-branched peptides, FIG. 1A) [11]: improved peptide activity
